From patent US9415049B2, “Heteroaryl compounds and uses thereof” (Celgene Avilomics Research, Inc., priority 2013, dated 2016)

How the values were obtained:
[1] = target: T1, human recombinant full-length Btk enzyme (Homo sapiens, UniProt Q06187); assay: Omnia Continuous Read Kinase Assay, Btk inhibition; format: biochemical; parameters: human recombinant full-length Btk enzyme; conditions: 30 minutes pre-incubation at 27° C.; 0.5 nM to 10 μM
Description: The following Example describes testing certain compounds according to the invention for inhibition of BTK activity. The Omnia® Continuous Read Kinase Assay uses an unnatural amino acid chelation enhanced fluorophore (Sox; 8-hydroxy-5-(N,N-dimethylsulfonamido)-2 methylquinoline) incorporated into a kinase-specific peptide substrate to characterize Btk enzyme kinetics and inhibition. Following Btk-mediated phosphorylation, a sensitive, highly quantifiable increase in real-time fluorescence is noted based upon the ability of chelated Mg2+ to form a bridge between Sox and the phosphate group on a tyrosine residue of the peptide substrate. The Omnia® continuous read assay was performed essentially as described by the vendor (Invitrogen; Carlsbad, Calif.). First, a 10× stock of human recombinant full-length Btk enzyme was prepared in Kinase Reaction Buffer. 5 μL of the 10× enzyme was pre-incubated with 0.5 μL of serially diluted compound prepared in 50% DMSO, in a 384-well microtiter plate for 30 minutes at 27° C. 1.13×ATP and the Tyr5-Sox conjugated peptide substrate were prepared in 1× Kinase Reaction Buffer. Kinase reactions were initiated by the addition of 45 μL of the 1.13×ATP-Sox peptide substrate master mix and monitored every 30 to 90 seconds for 60 minutes at λex360/λem485 in a Synergy plate reader. The IC50 values for each compound assayed were determined from test concentrations of 0.5 nM to 10 μM in half-log intervals performed in duplicate.
At the conclusion of each assay, progress curves from each well were examined for linear reaction kinetics and fit statistics (R2, 95% confidence interval, absolute sum of squares) using GraphPad software (GraphPad Prism version 5.01; San Diego, Calif.). Initial velocity (0 minutes to ˜30+ minutes) from each reaction was determined from the slope of a plot of relative fluorescence units versus time (minutes). Using control normalized % inhibition data, plots were constructed against inhibitor concentration to estimate IC50 from log [inhibitor] versus response using a variable slope model in GraphPad. The compound numbers correspond to the compound numbers in Table 1.

BTK = target: T2, BTK (Homo sapiens, UniProt Q06187); assay: Btk target site occupancy, covalent probe ELISA in Ramos cells; format: cell-based; conditions: 1 hour at 37° C., 0.09-200 nM, read-out: Ramos cell EC50 (nM), BTK occupancy
T2 construct: endogenous in cells; host or cells: Ramos cells
Description: A covalent probe shown below was used in an ELISA assay to determine occupancy of the target BTK by certain compounds according to the invention.
Ramos cells were incubated in serum-free RPMI medium for 1 hour (˜2×10^6 cells/mL in 2 mL). Test compounds were diluted from a 10 mM DMSO stock solution, to achieve a final concentration of 0.09, 0.27, 0.82, 2.47, 7.42, 22.2, 66, and 200 nM. Cells were then incubated for 1 hour at 37° C. Following incubation, cells were spun at 1100 RPM for 5 minutes then washed in 200 μL of chilled PBS. Following the wash, cells were spun at 1100 RPM for 5 minutes. The supernatant was aspirated and then cells were resuspended in lysis buffer containing protease and phosphatase inhibitors. This was followed by centrifugation for 15 minutes at 14000 RPM at 4° C. Supernatant was transferred to a fresh tube. Lysates were stored at −80° C. until assayed.
Samples were thawed and mixed well by vortexing for 5 seconds. 60 μL of each sample was added into the 96-well mixing plate followed by addition of 60 μL of covalent probe solution (2 μM probe in PBS+0.05% Tween-20+1% BSA; 1:2 sample dilution) to each well containing sample. An adhesive cover was then placed on the plate followed by mixing of the plate on a shaker for 1 hour at room temperature. The streptavidin plate was pre-washed 3 times with PBS+0.05% Tween-20. 50 μL of the standards, QCs, and samples were then transferred from the mixing plate to the streptavidin plate. The plate was covered with an adhesive cover and mixed while shaking for 1 hour at room temperature. A 1:1000 dilution of the primary anti-Btk antibody (catalog #611116, Becton Dickinson; Franklin Lakes, N.J.) in PBS+0.05% Tween-20+0.5% BSA was prepared. The streptavidin plate was washed 3 times with PBS+0.05% Tween-20 and 50 μL/well of diluted anti-Btk antibody was then pipetted into the streptavidin plate. The plate was covered and incubated for 1 hour at room temperature. A 1:5000 dilution of secondary antibody (goat anti-mouse-HRP, catalog #62-6520, Zymed-Invitrogen; Carlsbad, Calif.) in PBS+0.05% Tween-20+0.5% BSA was prepared. The streptavidin plate was again washed 3 times with PBS+0.05% Tween-20 and 50 μL/well of diluted secondary antibody was pipetted into the streptavidin plate. The plate was covered and incubated for 1 hour at room temperature. The streptavidin plate was again washed 3 times with PBS+0.05% Tween-20 followed by the addition of 100 μL of TMB solution to each well. The plate was then read on a Synergy^2 plate reader at OD 650 nm until the OD maximum reached 1.0. This was followed by the addition of 100 μL of the Stop Solution. The plate was then read at OD 450 nm. A human recombinant Btk protein standard curve (11.7-3000 pg/μL) was plotted using a 4 parameter curve fit in GenS software (Version 1.05.11; Biotek; Winooski, Vt.;). The sample ODs were read against the standard curve to calculate free protein amounts.
Data were generated as ODs on an ELISA plate reader (Synergy^2, BioTek; Winooski, Vt.). Uninhibited Btk captured by the biotinylated covalent probe was quantitated and normalized to untreated control samples. Results were expressed as % Btk occupancy. EC50 values were generated using a 4 parameter curve fit analysis in GraphPad Prism version 5.0.

[2] = target: T1, human recombinant full-length Btk enzyme; assay: Covalent bonding assay, intact protein MALDI mass spectrometry; format: binding; parameters: The full-length recombinant human Btk protein; purchased Invitrogen Lot #619547Q (catalogue number not given); conditions: percentage of total protein covalently modified after one hour incubation, 10-fold excess of compound, room temperature
Description: The following example describes testing certain compounds to determine whether they covalently bind to BTK. The full-length recombinant human Btk protein (Lot #619547Q; 0.35 mg/mL) was obtained from Invitrogen (Carlsbad, Calif.). Btk protein was diluted 2:3 in phosphate-buffered saline and stock concentration (10 mM) of compound was diluted 1:115 in 50% DMSO.
For all compounds, 1 μL of diluted compound was added to 5 μL of diluted protein. These mixtures were then incubated for 60 minutes at a 10-fold excess of compound to protein under room temperature (˜24° C.) conditions.
At the end of the incubation, 5 μL aliquots of the samples were diluted with 15 μL of 0.2% TFA prior to micro C4 ZipTipping® directly onto the MALDI target plate using sinapinic acid as the desorption matrix (10 mg/mL in 0.2% TFA:Acetonitrile 50:50). Samples were immediately analyzed on an ABSciex 4800 MALDI TOF-TOF mass spectrometer.
For intact protein mass measurement, the mass spectrometer was set in linear mode using a pulsed extraction setting of 81,500. Bovine serum albumin (BSA; Sigma, St Louis, Mo.) was used as the standard to calibrate the instrument. These values correspond to the percentage of total protein covalently modified by the tested compound after one hour incubation.

[3] = system: TNF-α, IL-1β, and other inflammatory cytokines; conditions: LPS-stimulated hPBMC and human whole blood; cited from earlier work

T1 sequence (Q06187 whole entry): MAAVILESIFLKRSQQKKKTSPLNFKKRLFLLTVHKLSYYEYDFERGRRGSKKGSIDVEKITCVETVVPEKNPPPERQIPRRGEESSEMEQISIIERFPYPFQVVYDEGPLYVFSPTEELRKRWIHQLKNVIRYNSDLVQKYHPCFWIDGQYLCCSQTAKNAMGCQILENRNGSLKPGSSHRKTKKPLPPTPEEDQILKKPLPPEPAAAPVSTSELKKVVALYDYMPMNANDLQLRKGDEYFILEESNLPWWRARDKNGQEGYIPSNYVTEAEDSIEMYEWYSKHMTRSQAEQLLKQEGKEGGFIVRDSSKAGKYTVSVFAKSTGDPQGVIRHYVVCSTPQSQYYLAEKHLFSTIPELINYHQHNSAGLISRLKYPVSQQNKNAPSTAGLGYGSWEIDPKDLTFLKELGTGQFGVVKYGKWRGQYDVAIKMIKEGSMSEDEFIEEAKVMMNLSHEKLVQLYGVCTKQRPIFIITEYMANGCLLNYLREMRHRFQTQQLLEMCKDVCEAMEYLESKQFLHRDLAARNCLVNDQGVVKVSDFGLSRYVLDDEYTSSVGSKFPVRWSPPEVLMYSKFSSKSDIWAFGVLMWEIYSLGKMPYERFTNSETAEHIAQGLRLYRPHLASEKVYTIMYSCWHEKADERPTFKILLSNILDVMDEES
T2 sequence (Q06187 whole entry): as above

Row | IC50 [1] | EC50 (BTK) | MS % modification [2] | SMILES | inhibition of TNF-α, IL-1β, and other inflammatory cytokines [3]
1 | 11 to 100 nM | – | – | C=CC(=O)Nc1ccc(O)c(Nc2nc(Nc3ccc(OCCOC)cc3)ncc2F)c1 [Compound I-15, N-(3-((5-fluoro-2-((4-(2-methoxyethoxy)phenyl)amino)pyrimidin-4-yl)amino)-4-hydroxyphenyl)acrylamide] | –
2 | ≤ 10 nM | < 50 nM | – | C=CC(=O)Nc1cccc(Nc2nc(Nc3ccc(OCCOC)c(O)c3)ncc2F)c1 [Compound I-13, N-(3-((5-fluoro-2-((3-hydroxy-4-(2-methoxyethoxy)phenyl)amino)pyrimidin-4-yl)amino)phenyl)acrylamide] | –
3 | ≤ 10 nM | < 50 nM | – | C=CC(=O)Nc1cccc(Nc2nc(Nc3ccc(OCCOC)cc3)ncc2F)c1O [Compound I-18, N-(3-((5-fluoro-2-((4-(2-methoxyethoxy)phenyl)amino)pyrimidin-4-yl)amino)-2-hydroxyphenyl)acrylamide] | –
4 | > 501 nM | – | – | COCCOc1ccc(Nc2ncc(F)c(Nc3cccc(NC(=O)CCO)c3)n2)cc1 [Compound I-26, N-(3-((5-fluoro-2-((4-(2-methoxyethoxy)phenyl)amino)pyrimidin-4-yl)amino)phenyl)-3-hydroxypropanamide] | –
5 | ≤ 10 nM | < 100 nM | – | C=CC(=O)N(C)c1cccc(Nc2nc(Nc3ccc(OCCO)cc3)ncc2F)c1 [Compound I-23, N-(3-((5-fluoro-2-((4-(2-hydroxyethoxy)phenyl)amino)pyrimidin-4-yl)amino)phenyl)-N-methylacrylamide] | –
6 | ≤ 10 nM | – | – | C=CC(=O)Nc1cc(O)cc(Nc2nc(Nc3ccc(OCCOC)cc3)ncc2F)c1 [Compound I-16, N-(3-((5-fluoro-2-((4-(2-methoxyethoxy)phenyl)amino)pyrimidin-4-yl)amino)-5-hydroxyphenyl)acrylamide] | –
7 | 101 to 500 nM | – | C (<30% modification) | O=C(Nc1cccc(Nc2nc(Nc3ccc(OCCO)cc3)ncc2F)c1)C(O)CO (centres unmarked) [Compound I-5, N-(3-((5-fluoro-2-((4-(2-hydroxyethoxy)phenyl)amino)pyrimidin-4-yl)amino)phenyl)-2,3-dihydroxypropanamide] | –
8 | 101 to 500 nM | – | – | COCCOc1ccc(Nc2ncc(F)c(Nc3cccc(N4OCCC4=O)c3)n2)cc1 [Compound I-27] | –
9 | ≤ 10 nM | < 10 nM | – | C=CC(=O)Nc1cccc(N(C)c2nc(Nc3ccc(OCCO)cc3)ncc2F)c1 [Compound I-24] | –
10 | 101 to 500 nM | – | C (<30% modification) | O=C(Nc1cccc(Nc2nc(Nc3ccc(O)cc3)ncc2F)c1)C(O)CO (centres unmarked) [Compound I-6, N-(3-((5-fluoro-2-((4-hydroxyphenyl)amino)pyrimidin-4-yl)amino)phenyl)-2,3-dihydroxypropanamide] | –
11 | – | – | – | Cc1nc2cccc(N)c2c(=O)n1C1CCC(=O)NC1=O (centres unmarked) [compound of formula D, 3-(5-amino-2-methyl-4-oxo-4H-quinazolin-3-yl)-piperidine-2,6-dione] | markedly inhibits
12 | 101 to 500 nM | – | C (<30% modification) | COCCOc1ccc(Nc2ncc(F)c(Nc3cccc(NC(=O)C(O)CO)c3)n2)cc1 (centres unmarked) [Compound I-4, N-(3-((5-fluoro-2-((4-(2-methoxyethoxy)phenyl)amino)pyrimidin-4-yl)amino)phenyl)-2,3-dihydroxypropanamide] | –
13 | ≤ 10 nM | < 50 nM | – | O=C(Nc1cccc(Nc2nc(Nc3ccc(OCCO)cc3)ncc2F)c1)C1CO1 (centres unmarked) [Compound I-22, N-(3-((5-fluoro-2-((4-(2-hydroxyethoxy)phenyl)amino)pyrimidin-4-yl)amino)phenyl)oxirane-2-carboxamide] | –
14 | ≤ 10 nM | – | – | C=CC(=O)Nc1cc(Nc2nc(Nc3ccc(OCCOC)cc3)ncc2F)ccc1O [Compound I-17, N-(5-((5-fluoro-2-((4-(2-methoxyethoxy)phenyl)amino)pyrimidin-4-yl)amino)-2-hydroxyphenyl)acrylamide] | –
15 | 101 to 500 nM | – | – | C=CC(=O)Nc1cccc(Nc2nc(N(C)c3ccc(OCCO)cc3)ncc2F)c1 [Compound I-25, N-(3-((5-fluoro-2-((4-(2-hydroxyethoxy)phenyl)(methyl)amino)pyrimidin-4-yl)amino)phenyl)acrylamide] | –
16 | ≤ 10 nM | – | – | C=CC(=O)Nc1cccc(Nc2nc(Nc3ccc(OCCOC)cc3O)ncc2F)c1 [Compound I-14, N-(3-((5-fluoro-2-((2-hydroxy-4-(2-methoxyethoxy)phenyl)amino)pyrimidin-4-yl)amino)phenyl)acrylamide] | –
17 | ≤ 10 nM | < 10 nM | A (>70% modification) | COCCOc1ccc(Nc2ncc(F)c(Nc3cccc(NC(=O)C4CO4)c3)n2)cc1 (centres unmarked) [Compound I-19, N-(3-((5-fluoro-2-((4-(2-methoxyethoxy)phenyl)amino)pyrimidin-4-yl)amino)phenyl)oxirane-2-carboxamide] | –
18 | ≤ 10 nM | > 200 nM | – | C=CC(=O)Nc1cccc(Nc2nc(Nc3ccc(OCC(=O)O)cc3)ncc2F)c1 [Compound I-2, 2-(4-((4-((3-acrylamidophenyl)amino)-5-fluoropyrimidin-2-yl)amino)phenoxy)acetic acid] | –
